Where “and” joins values, the source holds several entries; their conditions need not be identical. Equal entries are not always repeated. Where two headings read alike, the source gives them in different places. Residues, ends and D or L forms follow the SMILES beside them. *: point of attachment. AMC = Cc1cc(=O)oc2cc(N*)ccc12; Cbz = O=C(OCc1ccccc1)*
Key:
cruzain [1] = target: T1, cruzain (Trypanosoma cruzi, UniProt P25779); details: 2% DMSO, from Ref. 40; cited from earlier work
cruzain [2] = target: T1, cruzain; assay: Kinetic parameters of peptide substrates for cruzain; format: biochemical; details: relative to Cbz-Phe-Arg-AMC
Experimental: All enzyme assays were performed at 25° C. Initial rates of the peptidolytic reaction catalyzed by cruzain were measured by monitoring the fluorescence generated by cleavage of the dipeptide-AMC bond. Assays were conducted in 96-well plates (Greiner; flat-bottom, clear black plates) in a total volume of 250 μL, containing either 50 mM MES (pH 7.5), 50 mM TAPSO, 100 mM DEA, 1 mM CHAPS, 1 mM Na2EDTA, 5 mM DTT, and 10% DMSO (v/v) or 50 mM sodium acetate (pH 5.5), 50 mM MES, 100 mM TEA, 1 mM CHAPS, 1 mM Na2EDTA, 5 mM DTT, and 10% DMSO (v/v). Substrates were dissolved in 100% DMSO and were then diluted 10-fold such that when added to reaction mixtures, final DMSO concentration was 10% (v/v). Reactions were initiated with the addition of 1-10 μL of cruzain (final concentrations: 0.1-3.0 nM (preincubation studies)). Fluorescence was measured on either a SpectraMax M5 (Molecular Devices) or a Synergy HTX (BioTek, Winooski, VT) microplate reader (λex=360 nm, λem=460 nm). Initial rates were determined from continuous kinetic time courses and calculated from the earliest time points, typically at less than 10 min.
Initial velocity data for cruzain-catalyzed reactions of fluorogenic peptide substrates were determined by fitting to eq 1 using GraphPad Prism 6.0 or SigmaPlot 12.0. For eq 1, kcat is the turnover number, [E]t is the concentration of active sites of cruzain, and Ka is the Michaelis constant for the substrate A. Cruzain concentrations were determined by spectrophotometric analysis of purified sample solutions as described.^44

[3] = tested on: SARS-CoV-2 in Vero E6 cells; assay: Anti-CoV-2 activity in Vero E6 cells; format: cell-based
human cathepsin L = human cathepsin L (Homo sapiens (Human), UniProt P07711); assay: Human cathepsin L inhibition, Z-FR-AMC assay; format: biochemical; details: for Ki: pH 5.5, 25° C.
Sequence of human cathepsin L (P07711 114-333): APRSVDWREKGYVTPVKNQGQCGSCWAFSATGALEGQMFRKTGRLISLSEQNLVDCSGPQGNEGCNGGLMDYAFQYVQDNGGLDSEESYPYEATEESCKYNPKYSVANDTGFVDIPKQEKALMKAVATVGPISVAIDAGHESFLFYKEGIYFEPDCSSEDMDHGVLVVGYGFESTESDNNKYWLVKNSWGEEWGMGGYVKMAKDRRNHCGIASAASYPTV
Experimental: (§1) Recombinant human cathepsins B and L were purchased from Millipore Sigma and used without further treatment. The solid proteins were dissolved into a solution of 50 mM sodium acetate (pH 5.5), 1 mM EDTA, 1 mM CHAPS, 10% (v/v) DMSO, and 5 mM DTT to final concentrations of […] in 20-mL aliquots, and stored at −80° C. until needed. These samples were then diluted into the same buffer to concentrations of −100 nM, and these dilutions were stored at 4° C. and used daily until depletion.
(§2) For assays of cathepsin L and B, inhibitors were evaluated in 0.25-mL reaction mixtures containing a buffer of sodium acetate (pH 5.5), 1 mM CHAPS, 1 mM Na2EDTA, and 5 mM DTT at 25° C. The fluorogenic substrate Cbz-Phe-Arg-7-amino-4-methyl-coumarin (Z-FR-AMC) was dissolved in 100% DMSO, as were all inhibitors, and aliquots of both substrates and inhibitors were added to reaction mixtures to final concentrations of DMSO of 10% (v/v). […] Formation of the fluorescent product AMC was monitored over 30-60-minute time courses for reaction mixtures in 96-well black microplates (Corning Costar®). Rates of peptidolysis of the dipeptide-AMC substrate(s) were measured on either a SpectraMax M5 (Molecular Devices) or a Synergy HTX (Biotek, Wisnooki, VT) microplate reader with λex=360 nm, λem=460 nm in ≥8-sec intervals. Control samples excluded substrate. The measured relative fluorescence units (RFUs) of generated AMC were converted to reaction rates of μM/s by use of a standard curve of known AMC concentrations obtained for both plate readers.

[4] = tested on: T. b. brucei procyclic forms; assay: Growth of axenic cultures of T. b. brucei procyclic forms (PCFs); format: cell-based, Trypanosoma brucei brucei; details: axenic culture, read-out: EC50 T. b. brucei PCF
[5] = tested on: trypanosomes (T. b. brucei, T. cruzi); assay: Anti-trypanosomal activity, culture not stated; format: cell-based; details: culture (T. b. brucei PCF/BSF or T. cruzi-infected cardiomyoblasts) not stated
human cathepsin B = human cathepsin B (Homo sapiens (Human), UniProt P07858); assay: Human cathepsin B inhibition, Z-FR-AMC assay; format: biochemical; details: pH 5.5, 25° C.
Experimental: as §1, §2

cruzain [6] = target: T1, cruzain; assay: biochemical; details: pH 7.5
Outline: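 Fluorogenic assay at 25 °C following AMC release (ex 360/em 460 nm), with typically 0.2 nM cruzain and 10% DMSO, at pH 7.5 or 5.5 buffer with 5 mM DTT.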

[7] = tested on: T. b. brucei bloodstream forms; assay: Growth of axenic cultures of T. b. brucei bloodstream forms (BSFs)
SARS-CoV-2 3CL protease = SARS-CoV-2 3CL protease (Severe acute respiratory syndrome coronavirus 2 (2019-nCoV) (SARS-CoV-2), UniProt P0DTD1); assay: biochemical; format: biochemical; details: for Ki: read-out: Ki* 3CLpro
[8] = tested on: T. cruzi epimastigotes (strain Y); assay: Growth of axenic cultures of T. cruzi epimastigotes
Experimental: Selected cruzain inhibitors in axenic cell cultures of Trypanosoma brucei brucei (procyclic trypomastigotes; ATCC PRA-381) and Trypanosoma cruzi (epimastigote forms; strain Y, ATCC 50832GFP) were tested. T. b. brucei is grown in SDM-79 medium, and T. cruzi is grown in ATCC medium (1029 LIT medium). Both media included fetal calf serum (10%) and penicillin/streptomycin (50 U/mL). […] T. brucei and T. cruzi (5 mL in flask cultures) at 26° C. were seeded at ˜3×10^6 cells, and diluted daily maintaining a mid-log growth phase for up to 100 hrs. Cell counts were scored using a Z2 Coulter Counter. After each cell dilution, fresh compound or an equal volume of DMSO (control samples), was supplemented into the cultures. […] Cruzain inhibitors where the highest concentration reflects the upper limit of solubilities of the inhibitors in 1% (v/v) DMSO solutions were evaluated. These inhibitors are likely to bind to proteins in fetal calf serum, and for these reasons, fresh inhibitors were added each time cells were re-fed.
Selected cruzain inhibitors were evaluated in axenic cell cultures of T. b. brucei and T. cruzi. Procyclic trypomastigotes of T. b. brucei (ATCC PRA-381) were grown in the SDM-79 medium at 26° C., and bloodstream forms (ATCC PRA-383) were grown at 37° C. in the HMI-9 medium at 5% C02. T. cruzi (epimastigote forms, strain Y, ATCC 50832GFP) was grown in the ATCC medium (1029 LIT medium). Both forms of T. b. brucei and T. cruzi were grown in media containing 10% fetal bovine serum (FBS) and penicillin/streptomycin (50 U mL^−1). […] Control samples contained equal amounts of DMSO. T. b. brucei and T. cruzi (5 mL in flask cultures) were seeded at ˜3×10^6 cells and diluted daily, maintaining a mid-log growth phase for up to 120 h. […] After each cell dilution, fresh compound or an equal volume of DMSO (control samples) was supplemented into the cultures, while maintaining a constant concentration of each inhibitor. Cell counts were scored using a Z2 Coulter Counter.

[9] = tested on: T. cruzi (Ca-I/72) in C2C12 murine cardiomyoblasts; assay: T. cruzi-infected murine cardiomyoblasts (C2C12); format: cell-based, Trypanosoma cruzi; details: read-out: EC50 T. cruzi-infected cardiomyoblasts
Experimental: For the evaluation of the antitrypanocidal activity of cruzain inhibitors, we infected a C2C12 mouse cardiomyoblast cell line (ATCC CRL-1772) with T. cruzi strain Ca-I/72 (a gift from James Dvorak, National Institutes of Health) in […] plates. […] The plates were incubated at 37° C. for 48 h, and the wells were fixed with 2% paraformaldehyde in PBS and stained with 5 μg mL-1 4,6-diamidino-2-phenylindole. After at least 30 min of incubation at room temperature in the dark, the plates were read in an automated microscope, ImageXpress Micro XL (Molecular Devices), and the images were analyzed by custom-built software to quantify and assess viability of the parasites, as well as the host cells independently. The compilation of data was used to calculate the antiparasitic activity (EC50) and host cytotoxicity (CC50).
T. cruzi infection was evaluated in C2C12 murine cardiomyoblast cells. 384-microwell plates containing C2C12 murine cardiomyoblast cells were infected with 10^3 and 10^4 cells of T. cruzi (Ca-I/72), to which was added 3-fold serially-dilutions of inhibitor with maximal concentrations of 10 μM, followed by incubation at 37° C. for 2 days. The wells were fixed with 2% PFA in PBS, and stained by 5 μg/ml of DAPI. After >30 min of incubation in a dark environment, the plates were read on an ImageXpress MicroXL microscope (Molecular Devices). The images were analyzed to quantify parasites as well host cells.

[10] = Solubility of cruzain inhibitors in 10% DMSO, light scattering; format: physicochemical
Experimental: Synthetic PVHIs such as 5-16 and 22-24 at final concentrations of 1-200 μM were added to 0.25 mL solutions of 10% DMSO (v/v) in clear 96-well Greiner plates, and absorbance at 620 nm was measured using a BioTek M2 Synergy plate reader at t=0 and 120 min to evaluate increased light scattering and precipitated inhibitor.

[11] = Host cell cytotoxicity in the T. cruzi infection model; format: cell-based, mouse; details: mouse; host cardiomyoblasts; read-out: C2C12 Cytotoxicity CC50
Experimental: The plates were incubated at 37° C. for 48 h, and the wells were fixed with 2% paraformaldehyde in PBS and stained with 5 μg mL-1 4,6-diamidino-2-phenylindole. After at least 30 min of incubation at room temperature in the dark, the plates were read in an automated microscope, ImageXpress Micro XL (Molecular Devices), and the images were analyzed by custom-built software to quantify and assess viability of the parasites, as well as the host cells independently. The compilation of data was used to calculate the antiparasitic activity (EC50) and host cytotoxicity (CC50).
T. cruzi infection was evaluated in C2C12 murine cardiomyoblast cells. […] The wells were fixed with 2% PFA in PBS, and stained by 5 μg/ml of DAPI. After >30 min of incubation in a dark environment, the plates were read on an ImageXpress MicroXL microscope (Molecular Devices). The images were analyzed to quantify parasites as well host cells.

human dermal fibroblasts = assay: Human cell toxicity, resazurin viability; format: cell-based; details: human dermal fibroblasts; read-out: Human Cell Cytotoxicity CC50
Experimental: Primary human dermal fibroblast (HDF) cells were used to evaluate human cell toxicity of cruzain inhibitors. HDF cells were plated in a 384-well plate at 2400 cells per well (62,000 cells mL^−1). Inhibitors in 100% DMSO were added in duplicate to final concentrations of 0.001-0.1 mM and 1% DMSO (v/v) with 1% DMSO as a control sample, and cells were cultured at 37° C. for 48 h, followed by the addition of resazurin. Cell viability was then assessed by reading of fluorescence (excitation/emission: 544 nm/590 nm) after an additional 24 h of incubation.

[12] = obtained >10 minutes following initiation of reaction by addition of enzyme, read-out: Ki* Cruzain
[13] = read-out: EC50 T. b. brucei BSF, axenic culture
[14] = apparent tight-binding inhibition constant, 25° C., read-out: Ki*

T1 sequence (P25779 123-467 limits assumed): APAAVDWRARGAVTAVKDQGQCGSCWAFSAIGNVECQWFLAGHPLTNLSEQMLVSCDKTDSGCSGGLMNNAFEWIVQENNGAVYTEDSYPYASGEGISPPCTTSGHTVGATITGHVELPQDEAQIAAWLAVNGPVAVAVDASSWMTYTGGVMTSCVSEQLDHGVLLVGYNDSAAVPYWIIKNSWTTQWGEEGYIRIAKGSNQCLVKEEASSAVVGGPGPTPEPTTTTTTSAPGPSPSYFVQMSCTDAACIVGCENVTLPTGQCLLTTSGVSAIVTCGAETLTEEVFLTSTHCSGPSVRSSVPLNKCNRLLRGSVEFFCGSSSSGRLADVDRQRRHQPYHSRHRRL

## Cc1cc(=O)oc2cc(NC(=O)[C@H](CCCN=C(N)N)NC(=O)[C@H](CCCN=C(N)N)NC(=O)OCc3ccccc3)ccc12 [Compound S6, Cbz-Arg-Arg-AMC] (Cbz-Arg-Arg-{AMC})
Cruzain [1]
  Km: 3.7 ± 0.4 µM
  kcat: 7.2 ± 0.1 s⁻¹
  kcat/Km: 1.9e+06 ± 200000 M⁻¹ s⁻¹
Cruzain [2]
  kcat rel: 0.75

## COc1ccc2c(c1)CC(NC(=O)C(Cc1ccccc1)NC(=O)OCc1ccccc1)C(O)O2 (centres unmarked) [Compound 31]
[3]
  EC50: 2.5 µM and 2.5 to 7.5 µM
Human cathepsin L; read-out: Ki* hCatL
  Ki: 0.038 ± 0.002 µM
[4]
  EC50: 11 µM
[5]
  EC50: 3 to 11 µM
Human cathepsin B; read-out: Ki* hCatB
  Ki: 5.5 ± 0.4 µM
Cruzain [6]; [12]
  Ki: 0.35 ± 0.03 µM
[7]; [13]
  EC50: 3 µM and 2.6 µM
SARS-CoV-2 3CL protease
  Ki* 3CLpro: not an inhibitor of 3CL protease
  Ki: > 10 µM

## O=C(NC(Cc1ccccc1)C(=O)NC1Cc2cc(Cl)ccc2OC1O)OCc1ccccc1 (centres unmarked) [Compound 33]
Human cathepsin L; read-out: Ki* hCatL
  Ki: 0.027 ± 0.0007 µM
[4]
  EC50: 10 µM
[5]
  EC50: 6 to 10 µM
Human cathepsin B; read-out: Ki* hCatB
  Ki: 1.4 ± 0.1 µM
Cruzain [6]; [12]
  Ki: 0.074 ± 0.01 µM
[7]; [13]
  EC50: 6 µM and 5.8 µM
SARS-CoV-2 3CL protease; pH 7.5
  Ki: > 10 µM

## COC(=O)c1ccc2c(c1)CC(NC(=O)C(Cc1ccccc1)NC(=O)OCc1ccccc1)C(O)O2 (centres unmarked) [Compound 35]
[3]
  EC50: 2.5 µM
Human cathepsin L
  inhibits cathepsin L more potently than cruzain: 6 fold
Human cathepsin L; read-out: Ki* hCatL
  Ki: 0.0108 ± 0.0008 µM
[4]
  EC50: 6.7 µM
[5]
  EC50: 3.5 to 6.7 µM
Human cathepsin B; read-out: Ki* hCatB
  Ki: 0.67 ± 0.03 µM
[8]; read-out: T. cruzi axenic culture EC50, epimastigotes
  EC50: 2 to 20 µM
Cruzain [6]; [12]
  Ki: 0.018 ± 0.0005 µM
[9]; C2C12 murine cardiomyoblasts
  EC50: 3.5 ± 0.3 µM
SARS-CoV-2 3CL protease; pH 7.5
  Ki: > 10 µM

## O=C(N[C@@H](Cc1ccccc1)C(=O)N[C@H](/C=C/c1ccc([N+](=O)[O-])cc1)Cc1ccccc1)OCc1ccccc1 [Compound 6, Benzyl ((S)-1-(((S,E)-4-(4-Nitrophenyl)-1-phenylbut-3-en-2-yl)-amino)-1-oxo-3-phenylpropan-2-yl)carbamate]
Cruzain [6]; [14]
  Ki: 0.37 ± 0.02 µM
[10]
  aqueous solubility: poor aqueous solubility

## Cc1cc(=O)oc2cc(NC(=O)C(C)NC(=O)C(Cc3ccccc3)NC(=O)OCc3ccccc3)ccc12 (stereo not drawn) [Compound S12, Cbz-Phe-Ala-AMC]
Cruzain [1]
  Km: 38 ± 2 µM
  kcat: 0.89 ± 0.06 s⁻¹
  kcat/Km: 23000 ± 3000 M⁻¹ s⁻¹
Cruzain [2]
  kcat rel: 0.09

## O=C(N[C@@H](Cc1ccccc1)C(=O)N[C@H](/C=C/c1ccccc1)Cc1ccccc1)OCc1ccccc1 [Compound 5, Benzyl ((S)-1-(((S,E)-1,4-Diphenylbut-3-en-2-yl)amino)-1-oxo-3-phenylpropan-2-yl)carbamate]
Cruzain [6]; apparent initial inhibition constant, 25° C., read-out: Ki
  Ki: 1.8 ± 0.1 µM
Cruzain [6]; [14]
  Ki: 0.87 µM
[10]
  aqueous solubility: poor aqueous solubility

## O=C(N[C@@H](Cc1ccccc1)C(=O)N[C@H](/C=C/c1ccccn1)CCc1ccccc1)OCc1ccccc1 [Compound 13, Benzyl ((S)-1-Oxo-3-phenyl-1-(((S,E)-5-phenyl-1-(pyridin-2-yl)-pent-1-en-3-yl)amino)propan-2-yl)carbamate]
Human cathepsin L; 10% DMSO, read-out: Ki* Human Cathepsin L
  Ki: 1.9 ± 0.2 µM
[4]; Trypanosoma brucei
  EC50: 5.5 µM
[4]
  EC50: > 10 µM
Human cathepsin B; 10% DMSO, read-out: Ki* Human Cathepsin B
  Ki: 6.5 ± 0.9 µM
[8]; Trypanosoma cruzi, read-out: T. cruzi axenic culture EC50, epimastigotes
  EC50: > 20 µM
[8]; epimastigotes
  T. cruzi axenic culture EC50: poorly effective
[11]
  CC50 at 48 h: > 10 µM
[7]; Trypanosoma brucei, read-out: EC50 T. b. brucei BSF, axenic culture
  EC50: 4 ± 2 µM
[9]; C2C12 murine cardiomyoblasts
  EC50: 5.9 ± 0.3 µM
[9]; Trypanosoma cruzi, C2C12, C2C12 murine cardiomyoblasts
  EC50: 5 to 10 µM
Human dermal fibroblasts
  CC50: > 100 µM

## O=C(NC(Cc1ccccc1)C(=O)NC1Cc2cc(F)ccc2OC1O)OCc1ccccc1 (centres unmarked) [Compound 34]
[3]
  EC50: 4 µM and 2.5 to 7.5 µM
Human cathepsin L; read-out: Ki* hCatL
  Ki: 0.023 ± 0.001 µM
[4]
  EC50: 11.1 µM
[5]
  EC50: 3 to 11 µM
Human cathepsin B; read-out: Ki* hCatB
  Ki: 2.3 ± 0.2 µM
Cruzain [6]; [12]
  Ki: 0.048 ± 0.002 µM
[7]; [13]
  EC50: 2.7 µM
[9]; C2C12 murine cardiomyoblasts
  EC50: 3.5 µM and 3 to 5.7 µM
SARS-CoV-2 3CL protease; pH 7.5
  Ki: > 10 µM

Source: patent US20240150396A1 (The Texas A&M University System, priority 2021, published 2024)
